Reference: US20100311748A1, “HETEROCYCLIC AMIDES USEFUL FOR THE TREATMENT OF CANCER AND PSORIASIS” (ASTRAZENECA AB, priority 2007, published 2010)

system: Hedgehog pathway; assay: Hedgehog Pathway Cellular Differentiation Assay (alkaline phosphatase production in C3H10T1/2 cells with Shh ligand); assay type: cell-based; conditions: 3 μM compound, Shh ligand conditioned media, 72 h, alkaline phosphatase
Summary of the method: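 C3H10T1/2 cells in DMEM/2% FBS with Shh-conditioned medium were treated 72 h with compound, threefold dilutions from 30 μM to 3 nM. After RIPA lysis, alkaline phosphatase was read with pNp (1 mg/mL, diethanolamine pH 9.8) at 30 °C, absorbance 405 nm. Percent inhibition and IC50 came from absorbance.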

Structure (SMILES)	% Inhibition at 3 μM [%]
Cc1ccc(-c2ncc[nH]2)cc1NC(=O)c1ccc2c(c1)OCCN2C [Example 149, N-[5-(1H-imidazol-2-yl)-2-methyl-phenyl]-2-methyl-5-oxa-2-azabicyclo[4.4.0]deca-7,9,11-triene-8-carboxamide]	63.4
Cc1ccc(-c2ccc3cc[nH]c3n2)cc1NC(=O)c1ccc(OCc2ccccn2)cc1 [Example 3, N-[5-(5,7-diazabicyclo[4.3.0]nona-2,4,8,10-tetraen-4-yl)-2-methyl-phenyl]-4-(pyridin-2-ylmethoxy)benzamide]	67.3

same assay, conditions: Mus musculus, C3H 10T1/2, 3 μM compound, Shh ligand conditioned media, 72 h, alkaline phosphatase

Structure (SMILES)	inhibition at 3 µM [%]
Cc1ccc(-c2ncc[nH]2)cc1NC(=O)c1ccc(OCc2cc(N3CCN(C)CC3)ccn2)cc1 [Example 126, N-[5-(1H-imidazol-2-yl)-2-methylphenyl]-4-{[4-(4-methylpiperazin-1-yl)pyridin-2-yl]methoxy}benzamide]	47.2
Cc1ccc(-c2ncc[nH]2)cc1NC(=O)c1ccc(OCc2ccc(N3CCN(C)CC3)cn2)cc1 [Example 155, N-[5-(1H-imidazol-2-yl)-2-methylphenyl]-4-{[5-(4-methylpiperazin-1-yl)pyridin-2-yl]methoxy}benzamide]	83.3
Cc1ccc(-c2nccn2C)cc1NC(=O)c1ccc(OCc2ccccc2C#N)cc1 [Example 51, 4-[(2-cyanophenyl)methoxy]-N-[2-methyl-5-(1-methylimidazol-2-yl)phenyl]benzamide]	82.1
Cc1ccc(-c2nnc(C)n2C)cc1NC(=O)c1ccc(OCc2ccccn2)cc1 [Example 39, N-(5-(4,5-dimethyl-4H-1,2,4-triazol-3-yl)-2-methylphenyl)-4-(pyridin-2-ylmethoxy)benzamide]	7.8
COc1ccc(C(=O)Nc2cc(-c3ncc[nH]3)ccc2C)cc1OC [Example 154, N-[5-(1H-imidazol-2-yl)-2-methyl-phenyl]-3,4-dimethoxy-benzamide]	17.6
Cc1ccc(-c2ncc[nH]2)cc1NC(=O)c1ccc(OCc2cc3c(cc2Cl)OCO3)cc1 [Example 57, 4-[(6-chloro-1,3-benzodioxol-5-yl)methoxy]-N-[5-(1H-imidazol-2-yl)-2-methylphenyl]benzamide]	73.6
Cc1ccc(-c2ccccc2)cc1NC(=O)c1ccc(OCc2ccccn2)cc1 [Example 65, N-(2-methyl-5-phenyl-phenyl)-4-(pyridin-2-ylmethoxy)benzamide]	50
Cc1ccc(-c2ncc[nH]2)cc1NC(=O)c1ccc(OCc2ccc(S(C)(=O)=O)cc2)cc1 [Example 60, N-[5-(1H-imidazol-2-yl)-2-methylphenyl]-4-{[4-(methylsulfonyl)benzyl]oxy}benzamide]	79.7
Cc1nc(C)c(-c2ccc(C)c(NC(=O)c3ccc(OCc4ccccn4)cc3)c2)s1 [Example 32, N-[5-(2,4-dimethyl1,3-thiazol-5-yl)-2-methyl-phenyl]-4-(pyridin-2-ylmethoxy)benzamide]	54.1
Cc1ccc(-c2ncc(C)n2C)cc1NC(=O)c1ccc(OCc2ccccc2C#N)cc1 [Example 49, 4-[(2-cyanophenyl)methoxy]-N-[5-(1,5-dimethylimidazol-2-yl)-2-methyl-phenyl]benzamide]	82
Cc1ccc(-c2nc(-c3ccc(N4CCCC4)cc3)c[nH]2)cc1NC(=O)c1ccc(OCc2ccccn2)cc1 [Example 83, N-{2-methyl-5-[4-(4-pyrrolidin-1-ylphenyl)-1H-imidazol-2-yl]phenyl}-4-(pyridin-2-ylmethoxy)benzamide]	15.1
Cc1nc(-c2cc(NC(=O)c3ccc(OCc4ccccn4)cc3)c(C)cc2F)c[nH]1 [Example 103, N-[4-fluoro-2-methyl-5-(2-methyl-1H-imidazol-4-yl)phenyl]-4-(pyridin-2-ylmethoxy)benzamide]	85.6
Cc1ccc(-c2ncc[nH]2)cc1NC(=O)c1ccc(OCc2ncccc2N2CCOCC2)cc1 [Example 137, N-(5-(1H-imidazol-2-yl)-2-methylphenyl)-4-((3-morpholinopyridin-2-yl)methoxy)benzamide]	76.5
Cc1ccc(-c2ncc[nH]2)cc1NC(=O)c1ccc(C(F)(F)F)nc1C [Example 147, N-[5-(1H-imidazol-2-yl)-2-methyl-phenyl]-2-methyl-6-(trifluoromethyl)pyridine-3-carboxamide]	19.3
CCOC(=O)c1sc(-c2ccc(C)c(NC(=O)c3ccc(OCc4ccccn4)cc3)c2)nc1C [Example 19, ethyl 4-methyl-2-[4-methyl-3-[[4-(pyridin-2-ylmethoxy)benzoyl]amino]phenyl]1,3-thiazole-5-carboxylate]	52
Cc1cc(C)c(-c2cn(C)cn2)cc1NC(=O)c1ccc(OCc2ccccn2)cn1 [Example 113, N-(2,4-dimethyl-5-(1-methyl-1H-imidazol-4-yl)phenyl)-5-(pyridin-2-ylmethoxy)picolinamide]	84.7
Cc1ccc(-c2ccc(N)nn2)cc1NC(=O)c1ccc(OCc2ccccn2)cc1 [Example 15, N-[5-(6-aminopyridazin-3-yl)-2-methyl-phenyl]-4-(pyridin-2-ylmethoxy)benzamide]	80.7
COc1cc(COc2ccc(C(=O)Nc3cc(-c4ncc[nH]4)ccc3C)cc2)cc(OC)c1 [Example 47, 4-[(3,5-dimethoxyphenyl)methoxy]-N-[5-(1H-imidazol-2-yl)-2-methyl-phenyl]benzamide]	80.9

Structure (SMILES)	inhibition at 3 µM [%]
Cc1ccc(-c2ncc[nH]2)cc1NC(=O)c1ccc(C#Cc2ccccn2)cc1 [Example 107, N-[5-(1H-imidazol-2-yl)-2-methylphenyl]-4-(pyridin-2-ylethynyl)benzamide]	92.3
Cc1cc(C)c(-c2cn(C)c(C)n2)cc1NC(=O)c1ccc(OCc2ccccn2)cc1 [Example 73, N-(5-(1,2-dimethyl-1H-imidazol-4-yl)-2,4-dimethylphenyl)-4-(pyridin-2-ylmethoxy)benzamide]	85.8
Cc1ccc(-c2ncc[nH]2)cc1NC(=O)c1ccc(C(F)(F)F)nc1 [Example 150, N-[5-(1H-imidazol-2-yl)-2-methyl-phenyl]-6-(trifluoromethyl)pyridine-3-carboxamide]	19.4
Cc1ccc(-c2cn(C)c(C)n2)cc1NC(=O)c1ccc(OCc2ccccn2)cc1 [Example 156, N-[5-(1,2-dimethyl-1H-imidazol-4-yl)-2-methylphenyl]-4-(pyridin-2-ylmethoxy)benzamide]	86.2
Cc1cc(Cl)c(-c2cn(C)c(C)n2)cc1NC(=O)c1ccc(OCc2ccccn2)cc1 [Example 77, N-[4-chloro-5-(1,2-dimethyl-1H-imidazol-4-yl)-2-methylphenyl]-4-(pyridin-2-ylmethoxy)benzamide]	86.1
Cc1ccc(-c2nccn2C)cc1NC(=O)c1ccc(OCc2cc(OCC3CC3)ccn2)cc1 [Example 98, 4-{[4-(cyclopropylmethoxy)pyridin-2-yl]methoxy}-N-[2-methyl-5-(1-methyl-1H-imidazol-2-yl)phenyl]benzamide]	78.4
Cc1ccc(-c2nc(-c3ccccc3)c[nH]2)cc1NC(=O)c1ccc(OCc2ccccn2)cc1 [Example 81, N-[2-methyl-5-(4-phenyl-1H-imidazol-2-yl)phenyl]-4-(pyridin-2-ylmethoxy)benzamide]	78.8
COc1cc(COc2ccc(C(=O)Nc3cc(-c4nccn4C)ccc3C)cc2)cc(OC)c1 [Example 50, 4-[(3,5-dimethoxyphenyl)methoxy]-N-[2-methyl-5-(1-methylimidazol-2-yl)phenyl]benzamide]	80.5
Cc1cc(Cl)c(-c2ncc[nH]2)cc1NC(=O)c1ccc(OCc2ccccn2)cc1 [Example 76, N-[4-chloro-5-(1H-imidazol-2-yl)-2-methylphenyl]-4-(pyridin-2-ylmethoxy)benzamide]	77.6
Cc1ccc(-c2nc3ccccc3[nH]2)cc1NC(=O)c1ccc(OCc2ccccn2)cc1 [Example 30, N-[5-(1H-benzoimidazol-2-yl)-2-methyl-phenyl]-4-(pyridin-2-ylmethoxy)benzamide]	80.1
Cc1nc(-c2ccc(C)c(NC(=O)c3ccc(OCc4ccccn4)cc3)c2)c[nH]1 [Example 24, N-[2-methyl-5-(2-methyl-1H-imidazol-4-yl)phenyl]-4-(pyridin-2-ylmethoxy)benzamide]	81.1
Cc1ccc(-c2nc[nH]c2C)cc1NC(=O)c1ccc(OCc2ccccc2C#N)cc1 [Example 54, 4-[(2-cyanophenyl)methoxy]-N-[2-methyl-5-(5-methyl-1H-imidazol-4-yl)phenyl]benzamide]	77.5
Cc1cc(C)c(-c2ncc(C)n2C)cc1NC(=O)c1ccc(OCc2ccccn2)cc1 [Example 69, N-[5-(1,5-dimethyl-1H-imidazol-2-yl)-2,4-dimethylphenyl]-4-(pyridin-2-ylmethoxy)benzamide]	83.9
Cc1ccc(-c2cccnc2)cc1NC(=O)c1ccc(OCc2ccccn2)cc1 [Example 7, N-(2-methyl-5-pyridin-3-yl-phenyl)-4-(pyridin-2-ylmethoxy)benzamide]	70.8
Cc1ccc(-c2nc3cc([N+](=O)[O-])ccc3[nH]2)cc1NC(=O)c1ccc(OCc2ccccn2)cc1 [Example 14, N-[2-methyl-5-(5-nitro-1H-benzoimidazol-2-yl)phenyl]-4-(pyridin-2-ylmethoxy)benzamide]	79.2
Cc1cc(-c2nc3ccccc3[nH]2)ccc1NC(=O)c1ccc(OCc2ccccn2)cc1 [Example 31, N-[4-(1H-benzoimidazol-2-yl)-2-methyl-phenyl]-4-(pyridin-2-ylmethoxy)benzamide]	27.9
Cc1ccc(-c2ncc[nH]2)cc1NC(=O)c1ccc(OCc2cc(OCCO)ccn2)cc1 [Example 132, N-(5-(1H-imidazol-2-yl)-2-methylphenyl)-4-((4-(2-hydroxyethoxy)pyridin-2-yl)methoxy)benzamide]	77.1
